These results are taken from PubChem BioAssay (NCI).

Common to all, as to assay: NCI-60 cell line screen, 48 h
For assay [1], the system named is UO-31 renal.
The test system of assay [2] is SK-MEL-5 melanoma.
The test system of assay [3] is HL-60(TB) leukemia.
Assay [4] deals with SW-620 colon.
Assay [5] relates to MDA-MB-435.
In assay [6] the test system is HCC-2998 colon.
Assay [7] concerns EKVX NSCLC.
Assay [8] deals with SK-MEL-2 melanoma.
Assay [9] deals with OVCAR-3 ovarian.
Assay [10] concerns SF-295 CNS.

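1) Cells in 96-well plates. 2) Compound, 48 h, 5 concentrations. 3) Linear interpolation between surrounding doses. 4) Unreached endpoint = highest concentration. GI50: concentration for 50% inhibition of growth. TGI is the concentration that stops growth completely.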 Some results are limits rather than exact numbers.

As for `CC1(C)CC(=O)C2=C(C1)NC(SSC1=C(C#N)C(c3ccccc3)C3=C(CC(C)(C)CC3=O)N1)=C(C#N)C2c1ccccc1` (stereo not given), the GI50 in [1] is 21 µg/mL; in [2] it was 27.8 µg/mL; in [3], 33.7 µg/mL; in assay [4], 28.6 µg/mL; in assay [5], 25.7 µg/mL; in assay [6], 27.8 µg/mL. For the same compound, the GI50 in [7] was 28.6 µg/mL; in [8] it was 26.5 µg/mL; in [9] it was 26.3 µg/mL; in assay [10], 112 µg/mL. The TGI is 40.5 µg/mL in assay [1]; 48.7 µg/mL in assay [2]; 97.8 µg/mL in assay [3]; 51.8 µg/mL in assay [4]; 49.9 µg/mL in [5]; 52.6 µg/mL in assay [6]. Moreover, the TGI in assay [7] was 56.2 µg/mL; in [8], 49.8 µg/mL; in assay [9], 47.8 µg/mL; in assay [10], more than 150 µg/mL.

Take `O=C(Nc1n[nH]c2nc(-c3ccco3)c(Br)cc12)C1CC1`: the GI50 in assay [1] is more than 25 µM; in [2] it was more than 16.4 µM; in [3], more than 25 µM; in assay [4] it was more than 25 µM; in assay [5], more than 25 µM; in assay [6] it was more than 25 µM. The GI50 in [7], in assay [8], in assay [9] and in assay [10] was more than 25 µM throughout. Further, the TGI in assay [1], in assay [2], in assay [3], in assay [4], in assay [5] and in assay [6] was more than 25 µM throughout. In addition, the TGI in assay [7], in [8], in assay [9] and in [10] was more than 25 µM in each case.

As for `COc1ccc(/C(=C/c2cc(OC)c(OC)c(OC)c2)[N+](=O)[O-])cc1`, the GI50 in assay [1] was 1.3 µM; in [2], 1.69 µM; in assay [3] it was 1.61 µM; in [4] it was 1.71 µM; in assay [5], 1.81 µM; in assay [6], 1.81 µM. Also, the GI50 was 1.96 µM in assay [7], 2.04 µM in assay [8], 1.66 µM in assay [9] and 2.09 µM in [10]. For the same compound, the TGI is 2.62 µM in assay [1]; 3.11 µM in assay [2]; 5.59 µM in [3]; 3.91 µM in [4]; 3.99 µM in assay [5]; 3.28 µM in assay [6]. In addition, the TGI came to 4.32 µM in [7], 4.92 µM in assay [8], 3.14 µM in assay [9] and 5.34 µM in [10].

As to `Cc1ccc(S(=O)(=O)N/N=C/C(Br)=C(/Br)C(=O)O)cc1`, the TGI in assay [1] amounted to 20 µM; in assay [2], 25.8 µM; in assay [3], 5.12 µM; in [4], 14 µM; in assay [5] it was 18.3 µM; in assay [6], 15.7 µM. Moreover, the TGI in [7] came to 34 µM; in assay [8] it was 35.1 µM; in assay [9], 20.2 µM; in assay [10], 36.3 µM.

As for `C1=CN2C[n+]3cccc(OCc4ccccc4)c3N=C2C(OCc2ccccc2)=C1`, the TGI in assay [1] was more than 100 µM; in assay [2], 21.2 µM; in assay [3], 0.849 µM; in assay [4], more than 100 µM; in [5] it was 33.2 µM; in [6], 23.2 µM. For the same compound, the TGI in assay [7] was more than 100 µM; in assay [8] it was 33.3 µM; in [9], 25 µM; in assay [10], 50 µM.

For `COC(=O)[C@]12CC[C@@H](C)[C@H](C)[C@@H]1C1=CC[C@@H]3[C@@]4(C)CC(=O)[C@H](O)[C@@]5(C)COC(=C45)C[C@@]3(C)[C@]1(C)CC2`, the GI50 in assay [1] was 16.9 µM; in assay [2], 16.6 µM; in assay [3] it was 19.5 µM; in assay [4] it was 17.5 µM; in assay [5], 17 µM; in assay [6], 17.7 µM. In addition, the GI50 in [7] is 17.4 µM; in assay [8] it was 18.9 µM; in assay [9], 19 µM; in assay [10], 17.9 µM. Further, the TGI turned out to be 32.8 µM in [1]; 30.2 µM in assay [2]; 40.9 µM in [3]; 33.6 µM in [4]; 32.5 µM in assay [5]; 33.1 µM in assay [6]. For the same compound, the TGI was determined as 34.2 µM in assay [7], 37.2 µM in assay [8], 34.8 µM in [9] and 33.7 µM in [10].

With `O=C(CCCc1c[nH]c2ccccc12)NC1CC(=O)c2c(Br)sc(Br)c21` (stereo not given), the GI50 in assay [1] is 22.2 µM; in [2] it was 14.5 µM; in assay [3], 5.04 µM; in [4], 18.8 µM; in assay [5] it was 17.8 µM; in [6] it was 2.06 µM. For the same compound, the GI50 was 18.9 µM in assay [7], 30.5 µM in [8], 10.4 µM in [9] and 22.7 µM in [10]. Besides, the TGI in assay [1] amounted to 63.1 µM; in assay [2] it was 30 µM; in assay [3] it was 67.1 µM; in assay [4], 41 µM; in assay [5], 57.3 µM; in [6], 4.03 µM. Besides, the TGI in assay [7] was 37.3 µM; in assay [8], more than 100 µM; in [9], 29.3 µM; in assay [10], 54.4 µM.
